Laboratory results from patent US9730938B2, “Bruton's tyrosine kinase inhibitor combinations and uses thereof” (Pharmacyclics LLC, priority 2014, dated 2017).

Tests used:
Assay type in all cases: cell-based
[1] = tested on: Jeko cells; experiment: 3-day CellTiter Glow combination study in Jeko cells with wild-type or mutant CARD11; conditions: FIG. 6
Procedure: Jeko cells, a MCL cell line, and OCI-Ly3, a DLBCL cell line, were used for this experiment.
In summary, 10,000 cells were plated into 96-well plates and treated with different concentrations of inhibitors. 3 days later, CellTiter Glow reagent was added into the wells and the luminescent signals were measured.

[2] = tested on: OCI-LY-10; experiment: Combined drug treatment cell viability, CellTiter-Glo assay (Example 2); conditions: 3 days
[3] = tested on: HBL-1; experiment: as above; conditions: 3 days
[4] = tested on: U2932; experiment: as above; conditions: 3 days
[5] = tested on: SU-DHL-2; experiment: as above; conditions: 3 days
[6] = tested on: TMD8; experiment: as above; conditions: 3 days
[7] = tested on: OCI-LY-3; experiment: as above; conditions: 3 days
[8] = ibrutinib 0 nM, JAK3 10 μM / MCL-1 3 μM alone
[9] = ibrutinib 0.0512 nM, JAK3 10 μM / MCL-1 3 μM / medium alone
[10] = ibrutinib 0.256 nM, JAK3 10 μM / MCL-1 3 μM / medium alone
[11] = ibrutinib 1.28 nM, JAK3 10 μM / MCL-1 3 μM / medium alone
[12] = ibrutinib 6.4 nM, JAK3 10 μM / MCL-1 3 μM / medium alone
[13] = ibrutinib 32 nM, JAK3 10 μM / MCL-1 3 μM / medium alone
[14] = ibrutinib 160 nM, JAK3 10 μM / MCL-1 3 μM / medium alone
[15] = ibrutinib 800 nM, JAK3 10 μM / MCL-1 3 μM / medium alone
[16] = ibrutinib 20000 nM, JAK3 10 μM / MCL-1 3 μM / medium alone
[17] = ibrutinib 40000 nM, JAK3 10 μM / MCL-1 3 μM / medium alone

**Q.** With CC(C)C[C@H](NC(=O)[C@H](Cc1ccccc1)NC(=O)c1cnccn1)B(O)O [Velcade] as the compound, how does the “sensitization of Jeko cells containing the mutant CARD11 to ibrutinib treatment” value [1] read?
**A.** sensitized

**Q.** Which results are given for C[C@@H]1CCN(C(=O)CC#N)C[C@@H]1N(C)c1ncnc2[nH]ccc12 [tofacitinib]?
**A.** luminescence (CellTiter-Glo) [2, 8]: 55820.26; luminescence (CellTiter-Glo) [2, 9]: 51855.78; luminescence (CellTiter-Glo) [2, 10]: 42984.83; luminescence (CellTiter-Glo) [2, 11]: 35330.40; luminescence (CellTiter-Glo) [2, 12]: 19547.86; luminescence (CellTiter-Glo) [2, 13]: 13432.93; luminescence (CellTiter-Glo) [2, 14]: 13583.65; luminescence (CellTiter-Glo) [2, 15]: 14159.61; luminescence (CellTiter-Glo) [2, 16]: 14383.00; luminescence (CellTiter-Glo) [2, 17]: 14751.73; luminescence (CellTiter-Glo) [3, 8]: 78088.40; luminescence (CellTiter-Glo) [3, 9]: 48007.16; luminescence (CellTiter-Glo) [3, 10]: 49532.94; luminescence (CellTiter-Glo) [3, 11]: 56756.95; luminescence (CellTiter-Glo) [3, 12]: 46403.61; luminescence (CellTiter-Glo) [3, 13]: 47226.84; luminescence (CellTiter-Glo) [3, 14]: 41745.82; luminescence (CellTiter-Glo) [3, 15]: 37551.94; luminescence (CellTiter-Glo) [3, 16]: 17614.87; luminescence (CellTiter-Glo) [3, 17]: 39380.73; luminescence (CellTiter-Glo) [4, 8]: 74370.91; luminescence (CellTiter-Glo) [4, 9]: 61632.23; luminescence (CellTiter-Glo) [4, 10]: 61314.09; luminescence (CellTiter-Glo) [4, 11]: 61987.79; luminescence (CellTiter-Glo) [4, 12]: 58424.16; luminescence (CellTiter-Glo) [4, 13]: 57921.57; luminescence (CellTiter-Glo) [4, 14]: 55595.72; luminescence (CellTiter-Glo) [4, 15]: 54213.58; luminescence (CellTiter-Glo) [4, 16]: 24327.81; luminescence (CellTiter-Glo) [4, 17]: 54924.70; luminescence (CellTiter-Glo) [5, 8]: 133588.4; luminescence (CellTiter-Glo) [5, 9]: 154568.4; luminescence (CellTiter-Glo) [5, 10]: 167037.0; luminescence (CellTiter-Glo) [5, 11]: 171896.5; luminescence (CellTiter-Glo) [5, 12]: 165146.8; luminescence (CellTiter-Glo) [5, 13]: 173773.3; luminescence (CellTiter-Glo) [5, 14]: 165414.5; luminescence (CellTiter-Glo) [5, 15]: 167444.0; luminescence (CellTiter-Glo) [5, 16]: 2706.8; luminescence (CellTiter-Glo) [5, 17]: 164389.1; luminescence (CellTiter-Glo) [6, 8]: 42085.03; luminescence (CellTiter-Glo) [6, 9]: 22758.56; luminescence (CellTiter-Glo) [6, 10]: 22844.02; luminescence (CellTiter-Glo) [6, 11]: 23722.74; luminescence (CellTiter-Glo) [6, 12]: 22806.63; luminescence (CellTiter-Glo) [6, 13]: 23770.82; luminescence (CellTiter-Glo) [6, 14]: 23674.67; luminescence (CellTiter-Glo) [6, 15]: 21620.76; luminescence (CellTiter-Glo) [6, 16]: 6463.53; luminescence (CellTiter-Glo) [6, 17]: 19962.15; luminescence (CellTiter-Glo) [7, 8]: 60068.93; luminescence (CellTiter-Glo) [7, 9]: 52005.22; luminescence (CellTiter-Glo) [7, 10]: 56590.84; luminescence (CellTiter-Glo) [7, 11]: 49371.84; luminescence (CellTiter-Glo) [7, 12]: 52737.31; luminescence (CellTiter-Glo) [7, 13]: 47894.25; luminescence (CellTiter-Glo) [7, 14]: 42659.67; luminescence (CellTiter-Glo) [7, 15]: 54193.44; luminescence (CellTiter-Glo) [7, 16]: 59782.00; luminescence (CellTiter-Glo) [7, 17]: 45217.97
